Measurements taken from patent publication US20240327364A1, “THERAPEUTIC TARGETING OF GPR68 TO INDUCE FERROPTOSIS” (University Of Maryland, Baltimore, priority 2023, published 2024).

How the values were obtained:
[1] = target: T1, ABL1(F317L)-phosphorylated (Homo sapiens, UniProt P00519, F317L); experiment: KinomeScan; assay type: binding; conditions: read-out: % Control
T1 construct: purchased DiscoveRx

AURKA = target: T2, AURKA (Homo sapiens, UniProt O14965); experiment: KinomeScan; assay type: binding; conditions: read-out: % Control
T2 construct: purchased DiscoveRx (Fremont, CA)

CAMK4 = target: T3, CAMK4 (Homo sapiens, UniProt Q16566); experiment: KinomeScan; assay type: binding; conditions: read-out: % Control
T3 construct: purchased DiscoveRx (KinomeScan service)

CSK = CSK (Homo sapiens, UniProt P41240); experiment: KinomeScan; assay type: binding; conditions: read-out: % Control
CSNK1D = CSNK1D (Homo sapiens, UniProt P48730); experiment: KinomeScan; assay type: binding; conditions: read-out: % Control
Sequence of CSNK1D (P48730 whole entry): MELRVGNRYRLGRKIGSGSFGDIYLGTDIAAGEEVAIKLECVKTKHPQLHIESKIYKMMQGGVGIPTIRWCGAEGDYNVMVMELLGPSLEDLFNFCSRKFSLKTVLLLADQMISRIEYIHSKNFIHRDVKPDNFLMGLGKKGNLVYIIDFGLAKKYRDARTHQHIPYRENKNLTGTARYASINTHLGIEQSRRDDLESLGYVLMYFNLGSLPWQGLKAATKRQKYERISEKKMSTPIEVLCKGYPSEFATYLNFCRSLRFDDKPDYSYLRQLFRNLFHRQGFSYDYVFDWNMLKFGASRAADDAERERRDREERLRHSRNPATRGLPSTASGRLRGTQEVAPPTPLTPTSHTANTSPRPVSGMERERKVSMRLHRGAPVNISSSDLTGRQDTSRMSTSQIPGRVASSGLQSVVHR

CTK = CTK (Homo sapiens, UniProt P42679); experiment: KinomeScan; assay type: binding; conditions: read-out: % Control
DMPK = target: T4, DMPK (Homo sapiens, UniProt Q09013); experiment: KinomeScan; assay type: binding; conditions: read-out: % Control
T4 construct: purchased DiscoveRx (Fremont, CA), KinomeScan service

DYRK1A = target: T5, DYRK1A (Homo sapiens, UniProt Q13627); experiment: KinomeScan; assay type: binding; conditions: read-out: % Control
T5 construct: purchased DiscoveRx (Fremont, CA), KinomeScan service

EPHB3 = target: T6, EPHB3 (Homo sapiens, UniProt P54753); experiment: KinomeScan; assay type: binding; conditions: read-out: % Control
T6 construct: purchased DiscoveRx (Fremont, CA)

ERK3 = target: T7, ERK3 (Homo sapiens, UniProt Q16659); experiment: KinomeScan; assay type: binding; conditions: read-out: % Control
T7 construct: purchased DiscoveRx (Fremont, CA)

ERK4 = target: T8, ERK4 (Homo sapiens, UniProt P31152); experiment: KinomeScan; assay type: binding; conditions: read-out: % Control
T8 construct: purchased DiscoveRx (Fremont, CA)
T8 sequence (P31152 whole entry): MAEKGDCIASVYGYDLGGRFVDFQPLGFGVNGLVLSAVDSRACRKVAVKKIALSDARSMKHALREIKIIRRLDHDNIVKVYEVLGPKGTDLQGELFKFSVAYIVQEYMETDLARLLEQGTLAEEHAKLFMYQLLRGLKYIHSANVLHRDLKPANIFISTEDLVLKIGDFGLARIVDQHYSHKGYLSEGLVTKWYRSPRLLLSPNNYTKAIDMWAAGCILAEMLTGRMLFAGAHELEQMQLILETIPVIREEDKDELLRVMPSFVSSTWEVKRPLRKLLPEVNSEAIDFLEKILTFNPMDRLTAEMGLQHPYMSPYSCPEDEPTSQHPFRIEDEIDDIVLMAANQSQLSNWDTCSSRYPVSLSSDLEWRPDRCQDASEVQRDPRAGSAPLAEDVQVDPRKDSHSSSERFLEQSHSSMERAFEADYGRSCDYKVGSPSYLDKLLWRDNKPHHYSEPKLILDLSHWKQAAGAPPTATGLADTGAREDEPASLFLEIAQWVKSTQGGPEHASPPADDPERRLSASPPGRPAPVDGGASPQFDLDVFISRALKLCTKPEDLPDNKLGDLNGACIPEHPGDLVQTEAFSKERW

ERN1 = target: T9, ERN1 (Homo sapiens, UniProt O75460); experiment: KinomeScan; assay type: binding; conditions: read-out: % Control
T9 construct: purchased DiscoveRx (Fremont, CA)

LATS2 = target: T10, LATS2 (Homo sapiens, UniProt Q9NRM7); experiment: KinomeScan; assay type: binding; conditions: read-out: % Control
T10 construct: purchased DiscoveRx

LRRK2(G2019S) = target: T11, LRRK2(G2019S) (Homo sapiens, UniProt Q5S007, G2019S); experiment: KinomeScan; assay type: binding; conditions: read-out: % Control
T11 construct: purchased DiscoveRx

LYN = target: T12, LYN (Homo sapiens, UniProt P07948); experiment: KinomeScan; assay type: binding; conditions: read-out: % Control
T12 construct: purchased DiscoveRx

MAP3K2 = target: T13, MAP3K2 (Homo sapiens, UniProt Q9Y2U5); experiment: KinomeScan; assay type: binding; conditions: read-out: % Control
T13 construct: purchased DiscoveRx (Fremont, CA)

MST1 = target: T14, MST1 (Homo sapiens, UniProt Q13043); experiment: KinomeScan; assay type: binding; conditions: read-out: % Control
T14 construct: purchased DiscoveRx

NEK4 = target: T15, NEK4 (Homo sapiens, UniProt P51957); experiment: KinomeScan; assay type: binding; conditions: read-out: % Control
T15 construct: purchased DiscoveRx

PLK2 = target: T16, PLK2 (Homo sapiens, UniProt Q9NYY3); experiment: KinomeScan; assay type: binding; conditions: read-out: % Control
T16 construct: purchased DiscoveRx (Fremont, CA)

RIPK5 = target: T17, RIPK5 (Homo sapiens, UniProt Q6XUX3); experiment: KinomeScan; assay type: binding; conditions: read-out: % Control
T17 construct: purchased DiscoveRx (Fremont, CA)

[2] = target: T18, RSK3(Kin.Dom.1-N-terminal) (Homo sapiens, UniProt Q15349); experiment: KinomeScan; assay type: binding; conditions: read-out: % Control
T18 construct: RSK3(Kin.Dom.1-N-terminal); purchased DiscoveRx (Fremont, CA)

TLK1 = target: T19, TLK1 (Homo sapiens, UniProt Q9UKI8); experiment: KinomeScan; assay type: binding; conditions: read-out: % Control
T19 construct: purchased DiscoveRx (Fremont, CA)

TRKC = target: T20, TRKC (Homo sapiens, UniProt Q16288); experiment: KinomeScan; assay type: binding; conditions: read-out: % Control
T20 construct: purchased DiscoveRx (Fremont, CA)

BB2 = target: T21, BB2 (Homo sapiens, UniProt P30550); experiment: GPCR Profiler; assay type: cell-based
T21 construct: host or cells: Chem-1 cells with promiscuous Gα15
T21 sequence (P30550 whole entry): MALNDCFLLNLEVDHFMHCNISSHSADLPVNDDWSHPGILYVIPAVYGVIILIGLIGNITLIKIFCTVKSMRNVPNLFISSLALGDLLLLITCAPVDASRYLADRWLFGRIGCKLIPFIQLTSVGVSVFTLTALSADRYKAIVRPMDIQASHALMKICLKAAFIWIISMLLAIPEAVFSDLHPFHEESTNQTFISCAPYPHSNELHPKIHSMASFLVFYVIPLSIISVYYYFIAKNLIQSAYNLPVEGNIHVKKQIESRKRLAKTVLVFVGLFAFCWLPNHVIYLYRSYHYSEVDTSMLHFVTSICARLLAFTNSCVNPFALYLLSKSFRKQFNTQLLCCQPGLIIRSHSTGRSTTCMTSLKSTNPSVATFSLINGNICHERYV

CCR6 = target: T22, CCR6 (Homo sapiens, UniProt P51684); experiment: GPCR Profiler; assay type: cell-based
T22 construct: host or cells: Chem-1 cells with Gα15
T22 sequence (P51684 whole entry): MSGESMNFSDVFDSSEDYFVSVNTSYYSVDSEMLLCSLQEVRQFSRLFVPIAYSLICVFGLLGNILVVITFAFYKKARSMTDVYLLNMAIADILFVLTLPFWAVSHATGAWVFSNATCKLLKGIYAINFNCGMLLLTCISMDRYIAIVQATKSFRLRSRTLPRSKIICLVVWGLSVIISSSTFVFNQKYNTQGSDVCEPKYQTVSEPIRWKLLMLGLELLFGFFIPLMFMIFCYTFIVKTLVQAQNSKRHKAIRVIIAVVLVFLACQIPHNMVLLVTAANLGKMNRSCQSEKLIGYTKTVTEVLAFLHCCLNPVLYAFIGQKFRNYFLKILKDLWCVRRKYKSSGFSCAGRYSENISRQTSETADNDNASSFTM

CXCR5 = target: T23, CXCR5 (Homo sapiens, UniProt P32302); experiment: GPCR Profiler; assay type: cell-based
T23 construct: host or cells: Chem-1 cells with Gα15
T23 sequence (P32302 whole entry, species assumed): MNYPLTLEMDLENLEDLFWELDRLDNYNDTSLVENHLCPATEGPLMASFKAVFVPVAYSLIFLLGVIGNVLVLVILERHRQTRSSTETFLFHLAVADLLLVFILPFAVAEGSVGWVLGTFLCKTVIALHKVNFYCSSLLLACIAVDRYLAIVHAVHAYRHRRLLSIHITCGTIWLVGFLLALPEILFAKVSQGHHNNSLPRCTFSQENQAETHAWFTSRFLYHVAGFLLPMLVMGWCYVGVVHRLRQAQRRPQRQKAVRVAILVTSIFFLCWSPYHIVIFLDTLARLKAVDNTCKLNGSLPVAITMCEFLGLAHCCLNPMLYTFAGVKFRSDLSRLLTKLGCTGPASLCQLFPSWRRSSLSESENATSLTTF

EP1 = target: T24, EP1 (Homo sapiens, UniProt P34995); experiment: GPCR Profiler; assay type: cell-based
T24 construct: host or cells: Chem-1 cells expressing Gα15
T24 sequence (P34995 whole entry): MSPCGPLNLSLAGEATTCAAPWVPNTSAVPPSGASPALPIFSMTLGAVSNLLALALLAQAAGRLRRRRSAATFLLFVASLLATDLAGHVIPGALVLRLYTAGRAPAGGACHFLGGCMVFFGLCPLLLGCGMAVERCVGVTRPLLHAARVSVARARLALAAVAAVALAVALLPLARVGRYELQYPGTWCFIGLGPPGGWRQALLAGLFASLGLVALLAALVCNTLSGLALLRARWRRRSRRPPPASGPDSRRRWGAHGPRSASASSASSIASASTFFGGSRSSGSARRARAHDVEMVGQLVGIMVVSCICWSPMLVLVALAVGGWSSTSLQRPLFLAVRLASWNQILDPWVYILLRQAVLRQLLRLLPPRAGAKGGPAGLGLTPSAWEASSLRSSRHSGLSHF

EP3 = target: T25, EP3 (Homo sapiens, UniProt P43115); experiment: GPCR Profiler; assay type: cell-based
T25 construct: host or cells: Chem-1 cells expressing Gα15
T25 sequence (P43115 whole entry): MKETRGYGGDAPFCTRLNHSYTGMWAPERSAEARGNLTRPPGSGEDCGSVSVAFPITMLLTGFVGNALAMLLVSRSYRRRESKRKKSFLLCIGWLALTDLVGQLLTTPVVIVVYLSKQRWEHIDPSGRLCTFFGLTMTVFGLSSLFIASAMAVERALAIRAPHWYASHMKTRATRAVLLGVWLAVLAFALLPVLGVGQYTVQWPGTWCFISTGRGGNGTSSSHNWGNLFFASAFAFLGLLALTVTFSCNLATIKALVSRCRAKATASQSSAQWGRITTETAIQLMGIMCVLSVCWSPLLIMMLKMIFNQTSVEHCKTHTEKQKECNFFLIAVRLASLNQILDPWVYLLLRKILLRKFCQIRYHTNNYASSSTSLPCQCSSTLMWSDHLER

GABAB1b = target: T26, GABAB1b (Homo sapiens, UniProt Q9UBS5); experiment: GPCR Profiler; assay type: cell-based
T26 construct: host or cells: Chem-1 cells expressing Gα15
T26 sequence (Q9UBS5 1-844 isoform Q9UBS5-2): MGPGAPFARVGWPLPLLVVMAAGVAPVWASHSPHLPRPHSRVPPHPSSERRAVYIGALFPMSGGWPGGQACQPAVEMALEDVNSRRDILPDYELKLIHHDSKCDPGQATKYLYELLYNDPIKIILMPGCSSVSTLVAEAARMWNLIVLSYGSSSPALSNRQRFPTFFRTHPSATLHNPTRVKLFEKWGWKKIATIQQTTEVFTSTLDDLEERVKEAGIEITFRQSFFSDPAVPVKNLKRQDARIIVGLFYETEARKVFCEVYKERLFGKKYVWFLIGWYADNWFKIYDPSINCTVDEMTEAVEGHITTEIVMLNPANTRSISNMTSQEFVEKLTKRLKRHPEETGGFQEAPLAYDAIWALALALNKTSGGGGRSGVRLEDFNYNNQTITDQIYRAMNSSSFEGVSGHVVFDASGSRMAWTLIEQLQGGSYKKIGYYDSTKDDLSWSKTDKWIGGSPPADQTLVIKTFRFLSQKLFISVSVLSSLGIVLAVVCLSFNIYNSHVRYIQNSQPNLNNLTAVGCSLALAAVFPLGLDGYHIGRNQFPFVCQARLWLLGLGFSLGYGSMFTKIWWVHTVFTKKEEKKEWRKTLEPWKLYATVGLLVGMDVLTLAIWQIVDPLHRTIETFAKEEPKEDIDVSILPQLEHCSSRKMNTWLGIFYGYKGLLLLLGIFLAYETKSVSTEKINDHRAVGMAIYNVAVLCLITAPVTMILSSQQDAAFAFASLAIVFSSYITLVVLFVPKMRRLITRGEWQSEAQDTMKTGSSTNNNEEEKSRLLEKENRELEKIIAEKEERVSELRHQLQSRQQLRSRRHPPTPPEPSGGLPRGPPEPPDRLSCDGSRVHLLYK
T26 sequence (O75899 42-941 partner): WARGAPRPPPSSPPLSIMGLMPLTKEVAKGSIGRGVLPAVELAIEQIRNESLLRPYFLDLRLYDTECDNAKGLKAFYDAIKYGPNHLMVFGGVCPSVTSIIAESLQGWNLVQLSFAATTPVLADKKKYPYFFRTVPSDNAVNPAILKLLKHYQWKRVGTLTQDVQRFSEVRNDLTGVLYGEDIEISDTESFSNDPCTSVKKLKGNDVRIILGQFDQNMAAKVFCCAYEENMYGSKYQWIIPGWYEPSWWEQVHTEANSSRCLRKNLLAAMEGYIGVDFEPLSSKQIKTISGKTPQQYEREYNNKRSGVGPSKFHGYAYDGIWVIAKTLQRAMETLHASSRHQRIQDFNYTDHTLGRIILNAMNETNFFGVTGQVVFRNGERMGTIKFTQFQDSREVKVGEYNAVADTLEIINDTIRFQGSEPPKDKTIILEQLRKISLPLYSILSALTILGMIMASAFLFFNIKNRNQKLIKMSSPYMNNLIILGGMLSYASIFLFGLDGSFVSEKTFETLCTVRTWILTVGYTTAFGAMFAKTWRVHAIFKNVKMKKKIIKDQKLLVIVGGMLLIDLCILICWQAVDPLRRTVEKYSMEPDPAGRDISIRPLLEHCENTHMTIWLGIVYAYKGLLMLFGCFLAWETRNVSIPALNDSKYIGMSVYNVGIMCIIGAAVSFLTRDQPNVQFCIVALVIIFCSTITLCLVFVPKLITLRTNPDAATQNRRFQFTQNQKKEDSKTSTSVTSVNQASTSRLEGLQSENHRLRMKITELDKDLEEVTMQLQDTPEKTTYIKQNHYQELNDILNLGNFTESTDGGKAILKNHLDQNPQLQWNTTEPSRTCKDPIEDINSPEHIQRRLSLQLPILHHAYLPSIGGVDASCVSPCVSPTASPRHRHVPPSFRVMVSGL

GnRH = target: T27, GnRH (Homo sapiens, UniProt P30968); experiment: GPCR Profiler; assay type: cell-based
T27 construct: host or cells: Chem-1 cells expressing Gα15
T27 sequence (P30968 whole entry): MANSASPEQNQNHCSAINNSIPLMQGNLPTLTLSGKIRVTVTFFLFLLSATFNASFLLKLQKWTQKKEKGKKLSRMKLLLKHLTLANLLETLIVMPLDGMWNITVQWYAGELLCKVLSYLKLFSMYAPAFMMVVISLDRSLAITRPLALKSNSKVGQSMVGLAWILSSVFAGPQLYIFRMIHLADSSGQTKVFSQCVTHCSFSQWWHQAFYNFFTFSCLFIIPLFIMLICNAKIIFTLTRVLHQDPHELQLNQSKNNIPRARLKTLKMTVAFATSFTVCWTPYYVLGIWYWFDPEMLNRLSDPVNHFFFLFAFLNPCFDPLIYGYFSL

panel of 442 kinases = experiment: KinomeScan panel (summary); assay type: binding; conditions: 10 uM
GPR68 = GPR68 (Homo sapiens, UniProt Q15743); experiment: Flow-induced calcium response, Chem1-GPR68 cells; assay type: cell-based; parameters: host or cells: Chem-1 cells (Chem1-OGR1); conditions: 5-minute pre-incubation with 3 μM OGM2
Method: Chem1-GPR68 cells were stained with calcium indicator dye, and then exposed to 34 dyn/cm^2 (3.4 Pa) of force, generating a robust calcium response that could be inhibited by a 5-minute pre-incubation with 3 μM OGM2. […] Of note, one example of a method to enhance expression of ATF4 gene is using CRISPRa with sgRNA targeting the ATF4 gene, including with the s RNAs with the following sequences: […]

**Q.** How did the remaining binding at 10 µM [1] turn out when `CCc1ccc2c(c1)C1(NN=C(c3cccc4ccccc34)S1)C(=O)N2` (stereo not drawn) [OGM1, 5-ethyl-5′-naphthalen-1-ylspiro[1H-indole-3,2′-3H-1,3,4-thiadiazole]-2-one] was run?
**A.** Its remaining binding at 10 µM is 92%.

**Q.** And the remaining binding at 10 µM (AURKA)?
**A.** Its remaining binding at 10 µM is 100%.

**Q.** And the remaining binding at 10 µM (CAMK4)?
**A.** The remaining binding at 10 µM was 100%.

**Q.** What about the remaining binding at 10 µM (CSK) of the same compound?
**A.** The remaining binding at 10 µM was 83%.

**Q.** What about the remaining binding at 10 µM (CSNK1D) of the same compound?
**A.** Its remaining binding at 10 µM is 100%.

**Q.** What about the remaining binding at 10 µM (CTK) of the same compound?
**A.** Its remaining binding at 10 µM is 100%.

**Q.** What about the remaining binding at 10 µM (DMPK) of the same compound?
**A.** The remaining binding at 10 µM was 86%.

**Q.** And the remaining binding at 10 µM (DYRK1A)?
**A.** Its remaining binding at 10 µM is 39%.

**Q.** And the remaining binding at 10 µM (EPHB3)?
**A.** The remaining binding at 10 µM was 100%.

**Q.** What about the remaining binding at 10 µM (ERK3) of the same compound?
**A.** The remaining binding at 10 µM was 100%.

**Q.** What about the remaining binding at 10 µM (ERK4) of the same compound?
**A.** Its remaining binding at 10 µM is 93%.

**Q.** And the remaining binding at 10 µM (ERN1)?
**A.** Its remaining binding at 10 µM is 72%.

**Q.** And the remaining binding at 10 µM (LATS2)?
**A.** Its remaining binding at 10 µM is 100%.

**Q.** What about the remaining binding at 10 µM (LRRK2(G2019S)) of the same compound?
**A.** Its remaining binding at 10 µM is 100%.

**Q.** What about the remaining binding at 10 µM (LYN) of the same compound?
**A.** Its remaining binding at 10 µM is 100%.

**Q.** And the remaining binding at 10 µM (MAP3K2)?
**A.** Its remaining binding at 10 µM is 92%.

**Q.** What about the remaining binding at 10 µM (MST1) of the same compound?
**A.** Its remaining binding at 10 µM is 100%.

**Q.** And the remaining binding at 10 µM (NEK4)?
**A.** Its remaining binding at 10 µM is 100%.

**Q.** And the remaining binding at 10 µM (PLK2)?
**A.** The remaining binding at 10 µM was 100%.

**Q.** And the remaining binding at 10 µM (RIPK5)?
**A.** Its remaining binding at 10 µM is 56%.

**Q.** What about the remaining binding at 10 µM [2] of the same compound?
**A.** The remaining binding at 10 µM was 100%.

**Q.** And the remaining binding at 10 µM (TLK1)?
**A.** The remaining binding at 10 µM was 53%.

**Q.** What about the remaining binding at 10 µM (TRKC) of the same compound?
**A.** The remaining binding at 10 µM was 62%.

**Q.** What about the Antagonism (BB2; 10 uM) of the same compound?
**A.** Its Antagonism is 0.

**Q.** What about the Agonism (BB2; 12.5 uM) of the same compound?
**A.** The Agonism was −0.2.

**Q.** What about the Antagonism (CCR6; 10 uM) of the same compound?
**A.** The Antagonism was 5.1.

**Q.** And the Agonism (CCR6; 12.5 uM)?
**A.** Its Agonism is 1.5.

**Q.** What about the Antagonism (CXCR5; 10 uM) of the same compound?
**A.** Its Antagonism is −2.

**Q.** And the Agonism (CXCR5; 12.5 uM)?
**A.** Its Agonism is 0.9.

**Q.** And the Antagonism (EP1; 10 uM)?
**A.** Its Antagonism is −6.

**Q.** And the Agonism (EP1; 12.5 uM)?
**A.** The Agonism was 0.2.

**Q.** What about the Antagonism (EP3; 10 uM) of the same compound?
**A.** Its Antagonism is 6.3.

**Q.** And the Agonism (EP3; 12.5 uM)?
**A.** The Agonism was 0.4.

**Q.** What about the Antagonism (GABAB1b; 10 uM) of the same compound?
**A.** The Antagonism was 0.1.

**Q.** What about the Agonism (GABAB1b; 12.5 uM) of the same compound?
**A.** The Agonism was 0.6.

**Q.** What about the Antagonism (GnRH; 10 uM) of the same compound?
**A.** Its Antagonism is −2.6.

**Q.** And the Agonism (GnRH; 12.5 uM)?
**A.** Its Agonism is 0.5.

**Q.** And the “interaction with kinase domains” value (panel of 442 kinases)?
**A.** The value was “did not physically interact with the kinase domain of any kinase”.

**Q.** Which “calcium response to 34 dyn/cm^2 flow” value (GPR68) does the source give for `CCc1ccc2c(c1)C1(NN=C(c3ccccc3)S1)C(=O)N2` (stereo not drawn) [OGM2] here?
**A.** The value was “inhibited”.
